Reference: US7996156B2, “Methods for predicting properties of molecules” (priority 2002, dated 2011)
Like-named read-outs stand apart in the source and are kept apart here.

Molecular target: T1, estrogen receptor (Rattus norvegicus, UniProt P06211)
T1 construct: in rat uterine cytosol, which was obtained from ovariectomized uteri of Sprague-Dawley rats; from tissue; host or cells: uterine cytosol of ovariectomized Sprague-Dawley rats
T1 sequence (P06211 1-600): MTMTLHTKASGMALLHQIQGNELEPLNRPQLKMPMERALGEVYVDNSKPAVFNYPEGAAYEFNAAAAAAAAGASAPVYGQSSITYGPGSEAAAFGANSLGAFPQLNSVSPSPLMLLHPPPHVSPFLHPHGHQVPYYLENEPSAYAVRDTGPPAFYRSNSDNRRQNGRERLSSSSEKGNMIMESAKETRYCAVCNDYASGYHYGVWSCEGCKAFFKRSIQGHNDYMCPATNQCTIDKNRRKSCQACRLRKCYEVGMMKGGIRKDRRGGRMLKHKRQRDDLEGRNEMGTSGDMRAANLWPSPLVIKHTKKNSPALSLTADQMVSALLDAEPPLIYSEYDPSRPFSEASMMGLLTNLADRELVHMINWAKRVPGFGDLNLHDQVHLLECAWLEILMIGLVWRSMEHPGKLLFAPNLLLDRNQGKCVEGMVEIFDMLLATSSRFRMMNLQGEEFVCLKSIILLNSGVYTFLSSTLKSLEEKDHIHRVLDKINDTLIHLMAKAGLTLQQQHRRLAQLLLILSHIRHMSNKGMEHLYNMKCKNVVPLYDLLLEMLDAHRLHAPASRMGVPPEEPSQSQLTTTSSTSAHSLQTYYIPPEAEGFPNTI
Assay: Competitive ER binding assay with [3H]E2 in rat uterine cytosol (NCTR)
Text: The log relative binding activity (RBA) data for these 130 structurally diverse compounds was used to train the CoSCoSA models. The data was produced at NCTR using a competitive ER binding assay with radiolabeled estradiol ([^3H]E2) in rat uterine cytosol, which was obtained from ovariectomized uteri of Sprague-Dawley rats. […] For each of the 130 compounds, the ^13C 2D ^13C—^13C COSY NMR experiment was simulated using the ACD Labs CNMR version 5.0 2D predictor software. The COSY NMR spectra could be saved as two tables per compound.

[1] = relative binding affinity vs 17-β-estradiol (RBA 100), rat uterine cytosol, 130 compound training set

Row | Compound | Exp. Log(RBA) [1] | Exp. Log(RBA)
1 | 4-ethyl-7-OH-(p-meoxyphenol)-dihydro-1-benzopyran-2-one | −0.05 | 
2 | 4-hydroxytamoxifen |  | 2.24
3 | C[C@]12CC[C@@H]3c4ccc(O)cc4[C@@H](O)C[C@H]3[C@@H]1CC[C@@H]2O [1,3,5-Estratrien-3,6α-17β-triol] | −0.15 | 
4 | C[Si](C)(O[Si](C)(C)c1ccccc1)c1ccccc1 [1,3-diphenyltetramethyldisiloxane] |  | −3.16
5 | O=C(C(=O)c1ccc(O)cc1O)c1ccc(O)cc1O [2,2′,4,4′-tetrahydroxybenzil] |  | −0.68
6 | Oc1ccc(Cl)cc1Cc1cc(Cl)ccc1O [2,2′-methylenebis(4-chlorophenol)] |  | −2.45
7 | Oc1ccc(-c2cc(Cl)c(Cl)c(Cl)c2Cl)cc1 [2,3,4,5-tetraCl-4′-biphenylol] | −0.64 | 
8 | O=C(c1ccccc1)c1ccc(O)cc1O [2,4-dihyroxybenzophenone] | −2.61 | 
9 | Clc1ccc(-c2ccccc2Cl)cc1 [2,4′-dichlorobiphenyl] |  | −3.61
10 | Oc1ccc(-c2cc(Cl)ccc2Cl)cc1 [2,5-dichloro-4′-biphenylol] |  | −1.44
11 | CCC(c1ccc(O)cc1)C(CC)c1c(C)cc(O)cc1C (stereo not shown) [2,6-dimethylhexestrol] | 1.11 | 
12 | Oc1ccc(-c2ccccc2)c(Cl)c1 [2-Cl-4-biphenylol] | −2.77 | 
13 | C[C@]12CC[C@@H]3c4cc(O)c(O)cc4CC[C@H]3[C@@H]1CC[C@@H]2O [2-hydroxyestradiol] |  | 1.47
14 | O=C(/C=C/c1ccc(O)cc1)c1ccc(O)cc1O [2′,4,4′-trihydroxychalcone] |  | −1.26
15 | Oc1c(Cl)cc(-c2cc(Cl)c(O)c(Cl)c2)cc1Cl [3,3′,5,5′-tetraCl-4,4′-biphenyldiol] | −3.25 | 
16 | CCC(c1ccc(O)c(O)c1)C(CC)c1ccc(O)c(O)c1 (stereo not shown) [3,3′-dihydroxyhestrol] | 1.19 | 
17 | O=c1c(O)c(-c2ccc(O)cc2)oc2ccc(O)cc12 [3,6,4′-trihydroxyflavone] | −0.35 | 
18 | C[C@]12CC[C@@H]3c4ccccc4CC[C@H]3[C@@H]1CC[C@@H]2O [3-deoxyestradiol] | −0.3 | 
19 | C[C@]12CC[C@@H]3c4ccccc4CC[C@H]3[C@@H]1CCC2=O [3-deoxyestrone] | −2.2 | 
20 | CCc1cccc(O)c1 [3-ethylphenol] | −3.87 | 
21 | COc1ccc2c(c1)CC[C@@H]1[C@@H]2CC[C@]2(C)[C@@H](O)[C@H](O)C[C@@H]12 [3-methylestriol] | −1.65 | 
22 | Oc1cccc(-c2ccccc2)c1 [3-phenylphenol] |  | −3.44
23 | C[C@]12CC[C@@H](O)C[C@@H]1CC[C@@H]1[C@@H]2CC[C@]2(C)[C@@H](O)CC[C@@H]12 [3α-androstanediol] |  | −2.67
24 | C[C@]12CC[C@H](O)C[C@@H]1CC[C@@H]1[C@@H]2CC[C@]2(C)[C@@H](O)CC[C@@H]12 [3β-androstanediol] |  | −0.92
25 | O=c1c(-c2ccc(O)c(O)c2)coc2cc(O)ccc12 [3′,4′,7-trihydroxyisoflavone] | −2.35 | 
26 | O=C1CC(c2cccc(O)c2)Oc2ccccc21 (stereo not shown) [3′-OH-flavanone] | −2.78 | 

Row | Compound | Exp. Log(RBA) [1] | Exp. Log(RBA)
27 | Oc1ccc(CCc2ccc(O)cc2)cc1 [4,4′-(1,2-ethanediyl)bisphenol] | −1.44 | 
28 | Oc1ccc(C=Cc2ccc(O)cc2)cc1 [4,4′-dihroxystilbene] | −0.55 | 
29 | O=C(c1ccc(O)cc1)c1ccc(O)cc1 [4,4′-dihydroxybenzophenone] | −2.46 | 
30 | O=S(=O)(c1ccc(O)cc1)c1ccc(O)cc1 [4,4′-sulfonyldiphenol] |  | −3.07
31 | O=c1cc(-c2ccc(O)cc2)oc2ccc(O)cc12 [4,6-dihydroxyflavone] | −0.82 | 
32 | Cc1cc(O)ccc1Cl [4-Cl-3-methylphenol] | −3.38 | 
33 | Oc1ccc(-c2ccc(Cl)cc2)cc1 [4-Cl-4′-biphenylol] | −2.18 | 
34 | O=C(/C=C/c1ccc(O)cc1)c1ccccc1 [4-OH-chalcone] | −2.43 | 
35 | Oc1ccc(OCc2ccccc2)cc1 [4-benzyloxyphenol] |  | −3.44
36 | CCCCCCCCCCCCc1ccc(O)cc1 [4-dodecylphenol] |  | −1.73
37 | CCCCCCCOc1ccc(O)cc1 [4-heptyloxyphenol] | −2.88 | 
38 | C[C@]12CC[C@@H]3c4ccc(O)c(O)c4CC[C@H]3[C@@H]1CC[C@@H]2O [4-hydroxyestradiol] |  | 2.24
39 | CCCCCCCCCc1ccc(O)cc1 [4-nonylphenol] |  | −1.53
40 | Oc1ccc(CCc2ccccc2)cc1 [4-phenethylphenol] | −2.69 | 
41 | CCC(C)(C)c1ccc(O)cc1 [4-tert-amylphenol] |  | −3.26
42 | CC(C)(C)c1ccc(O)cc1 [4-tert-butylphenol] |  | −3.61
43 | O=C(/C=C/c1ccccc1)c1ccc(O)cc1 [4′-OH-chalcone] | −2.43 | 
44 | O=C1CC(c2ccc(O)cc2)Oc2ccccc21 (stereo not shown) [4′-hydroxyflavanone] | −2.65 | 
45 | O=C1CC(c2ccccc2)Oc2ccc(O)cc21 (stereo not shown) [6-hydroxyflavanone] | −3.05 | 
46 | O=c1cc(-c2ccccc2)oc2ccc(O)cc12 [6-hydroxyflavone] | −3.41 | 
47 | C[C@@]12CCC[C@H]1[C@@H]1CCc3cc(O)ccc3[C@H]1CC2 [17-deoxyestradiol] | 1.14 | 
48 | CCCCN(C)C(=O)CCCCCCCCCC[C@@H]1Cc2cc(O)ccc2[C@H]2CC[C@]3(C)[C@@H](O)CC[C@H]3[C@H]12 [ICI164384] | 1.16 | 
49 | C[C@]12CC[C@@H]3c4ccc(O)cc4C[C@@H](CCCCCCCCC[S+]([O-])CCCC(F)(F)C(F)(F)F)[C@H]3[C@@H]1CC[C@@H]2O (stereo partly shown) [ICI182780] |  | 1.57
50 | O=C1C=CC(=C(c2ccc(O)cc2)c2ccc(O)cc2)C=C1 [aurin] |  | −1.5
51 | O=c1cc(-c2ccccc2)oc2cc(O)c(O)c(O)c12 [baicalein] |  | −3.35
52 | O=C(OCc1ccccc1)c1ccc(O)cc1 [benzyl-4-hydroxybenzoate] | −2.54 | 

Row | Compound | Exp. Log(RBA) [1] | Exp. Log(RBA)
53 | COc1ccc(-c2coc3cc(O)cc(O)c3c2=O)cc1 [biochanin A] | −2.37 | 
54 | Oc1ccc(Cc2ccc(O)cc2)cc1 [bis-(4-hydroxyphenyl)methane] |  | −3.02
55 | CC(C)(c1ccc(O)cc1)c1ccc(O)cc1 [bisphenol A] | −2.11 | 
56 | CCC(C)(c1ccc(O)cc1)c1ccc(O)cc1 [bisphenol B] |  | −1.07
57 | O=C(/C=C/c1ccccc1)c1ccccc1 [chalcone] |  | −2.82
58 | O=c1c(-c2ccc(O)cc2)coc2cc(O)ccc12 [daidzein] |  | −1.65
59 | C/C=C(/C(=C/C)c1ccc(O)cc1)c1ccc(O)cc1 [dienestrol] |  | 1.57
60 | CC/C(=C(/CC)c1ccc(OC)cc1)c1ccc(OC)cc1 [dietheylstilbestrol dimethyl ether] | −1.25 | 
61 | CC/C(=C(/CC)c1ccc(OC)cc1)c1ccc(O)cc1 [diethylstilbestrol monomethyl ether] | 1.31 | 
62 | COc1cc(C(=C(Cl)Cl)c2ccc(O)cc2)ccc1O [dihydroxymethoxychlorolefin] |  | 0.42
63 | C/C(=C(/C)c1ccc(O)cc1)c1ccc(O)cc1 [dimethylstibestrol] | 1.16 | 
64 | CC(CCC(=O)O)(c1ccc(O)cc1)c1ccc(O)cc1 [diphenolic acid] |  | −3.13
65 | CC[C@H]1c2ccc3cc(OC)ccc3c2CC[C@@]1(C)C(=O)O [doisynoestrol] | −2.74 | 
66 | CC/C(=C(/c1ccc(OCCN(C)C)cc1)c1cccc(O)c1)c1ccccc1 [droloxifene] |  | 1.18
67 | Oc1ccc([C@H]2COc3cc(O)ccc3C2)cc1 [equol] |  | −0.82
68 | CCOC(=O)c1ccc(O)cc1 [ethyl-4-hydrobenzoate] | −3.22 | 
69 | O=c1c(O)c(-c2ccc(O)c(O)c2)oc2cc(O)ccc12 [fisetin] | −2.35 | 
70 | CCCCCCCOC(=O)c1ccc(O)cc1 [heptyl-4-hydroxybenzoate] | −2.09 | 
71 | CC[C@H](c1ccc(O)cc1)[C@@H](CC)c1ccc(O)cc1 [meso-hexestrol] |  | 2.48
72 | C#C[C@]1(O)CC[C@H]2[C@@H]3CCc4cc(OC)ccc4[C@H]3CC[C@@]21C [mestranol] |  | 0.35
73 | COC(=O)c1ccc(O)cc1 [methyl-4-hydrobenzoate] | −3.44 | 
74 | COc1ccc(C(c2ccc(O)cc2)C(Cl)(Cl)Cl)cc1 (stereo not shown) [monohydroxymethoxychlor] | −0.89 | 
75 | COc1ccc(C(=C(Cl)Cl)c2ccc(O)cc2)cc1 [monohydroxymethoxychlorolefin] | −0.63 | 
76 | CCC(c1ccc(O)cc1)C(CC)c1ccc(OC)cc1 (stereo not shown) [monomethyl ether hexestrol] | 0.97 | 
